Experiments:
Type in all cases: in vivo
[1] = tested on: ragweed (common ragweed, Ambrosia elatior); assay: Test A postemergence; conditions: for Ragweed plant response rating: 125 g ai/ha, postemergence, visual injury rating on 0 to 100 scale (0 no effect, 100 complete control), approx. 10 d; for Plant response rating, Ragweed: Postemergence, 500 g ai/ha, 0 to 100 scale where 0 is no effect and 100 is complete control
Excerpt: (§1) Seeds of plant species selected from barnyardgrass (Echinochloa crus-galli), Kochia (Kochia scoparia), ragweed (common ragweed, Ambrosia elatior), ryegrass, Italian (Italian ryegrass, Lolium multiflorum), crabgrass, large (Digitaria sanguinalis), giant foxtail (Setaria faberii), green foxtail (Setaria viridis), morningglory (Ipomoea spp.), pigweed (Amaranthus retroflexus), velvetleaf (Abutilon theophrasti), wheat (Triticum aestivum), and corn (Zea mays) were planted into a blend of loam soil and sand and treated preemergence with a directed soil spray using test chemicals formulated in anon-phytotoxic solvent mixture which included a surfactant.
(§2) At the same time, plants selected from these crop and weed species and also blackgrass (Alopecurus myosuroides), and Galium (catchweed bedstraw, Galium aparine) were planted in pots containing the same blend of loam soil and sand and treated with postemergence applications of test chemicals formulated in the same manner. Plants ranged in height from 2 to 10 cm and were in the one- to two-leaf stage for the postemergence treatment. Treated plants and untreated controls were maintained in a greenhouse for approximately 10 d, after which time all treated plants were compared to untreated controls and visually evaluated for injury. Plant response ratings, summarized in Table A, are based on a 0 to 100 scale where 0 is no effect and 100 is complete control. A dash (-) response means no test result.

[2] = tested on: giant foxtail (Setaria faberii); assay: Test A postemergence; conditions: for Foxtail, Giant plant response rating: 125 g ai/ha, postemergence, visual injury rating on 0 to 100 scale (0 no effect, 100 complete control), approx. 10 d; for Plant response rating, Foxtail, Giant: Postemergence, 500 g ai/ha, 0 to 100 scale where 0 is no effect and 100 is complete control
Excerpt: as §1, §2

[3] = tested on: Kochia (Kochia scoparia); assay: Test A postemergence; conditions: for Kochia plant response rating: 125 g ai/ha, postemergence, visual injury rating on 0 to 100 scale (0 no effect, 100 complete control), approx. 10 d; for Plant response rating, Kochia: Postemergence, 500 g ai/ha, 0 to 100 scale where 0 is no effect and 100 is complete control
Excerpt: as §1, §2

[4] = tested on: ryegrass, Italian (Italian ryegrass, Lolium multiflorum); assay: Test A postemergence; conditions: for Ryegrass, Italian plant response rating: 125 g ai/ha, postemergence, visual injury rating on 0 to 100 scale (0 no effect, 100 complete control), approx. 10 d; for Plant response rating, Ryegrass, Italian: Postemergence, 500 g ai/ha, 0 to 100 scale where 0 is no effect and 100 is complete control
Excerpt: as §1, §2

[5] = tested on: blackgrass (Alopecurus myosuroides); assay: Test A postemergence; conditions: for Blackgrass plant response rating: 125 g ai/ha, postemergence, visual injury rating on 0 to 100 scale (0 no effect, 100 complete control), approx. 10 d; for Plant response rating, Blackgrass: Postemergence, 500 g ai/ha, 0 to 100 scale where 0 is no effect and 100 is complete control
Excerpt: as §1, §2

[6] = tested on: Galium (catchweed bedstraw, Galium aparine); assay: Test A postemergence; conditions: for Galium plant response rating: 125 g ai/ha, postemergence, visual injury rating on 0 to 100 scale (0 no effect, 100 complete control), approx. 10 d; for Plant response rating, Galium: Postemergence, 500 g ai/ha, 0 to 100 scale where 0 is no effect and 100 is complete control
Excerpt: as §1, §2

[7] = tested on: barnyardgrass (Echinochloa crus-galli); assay: Test A postemergence; conditions: for Barnyardgrass plant response rating: 125 g ai/ha, postemergence, visual injury rating on 0 to 100 scale (0 no effect, 100 complete control), approx. 10 d; for Plant response rating, Barnyardgrass: Postemergence, 500 g ai/ha, 0 to 100 scale where 0 is no effect and 100 is complete control
Excerpt: as §1, §2

[8] = tested on: pigweed (Amaranthus retroflexus); assay: Test A postemergence; conditions: for Pigweed plant response rating: 125 g ai/ha, postemergence, visual injury rating on 0 to 100 scale (0 no effect, 100 complete control), approx. 10 d; for Plant response rating, Pigweed: Postemergence, 500 g ai/ha, 0 to 100 scale where 0 is no effect and 100 is complete control
Excerpt: as §1, §2

[9] = tested on: wheat (Triticum aestivum); assay: Test A postemergence; conditions: for Wheat plant response rating: 125 g ai/ha, postemergence, visual injury rating on 0 to 100 scale (0 no effect, 100 complete control), approx. 10 d; for Plant response rating, Wheat: Postemergence, 500 g ai/ha, 0 to 100 scale where 0 is no effect and 100 is complete control
Excerpt: as §1, §2

[10] = tested on: corn (Zea mays); assay: Test A postemergence; conditions: for Corn plant response rating: 125 g ai/ha, postemergence, visual injury rating on 0 to 100 scale (0 no effect, 100 complete control), approx. 10 d; for Plant response rating, Corn: Postemergence, 500 g ai/ha, 0 to 100 scale where 0 is no effect and 100 is complete control
Excerpt: as §1, §2

[11] = tested on: ragweed (common ragweed, Ambrosia elatior); assay: Test A preemergence; conditions: Preemergence; for Plant response rating, Ragweed: 125 g ai/ha, visual injury after approximately 10 d, 0 to 100 scale where 0 is no effect and 100 is complete control; for Ragweed plant response rating (0 to 100 scale, 0 is no effect, 100 is complete control): 500 g ai/ha, visual injury approx. 10 d
Excerpt: as §1, §2

[12] = tested on: giant foxtail (Setaria faberii); assay: Test A preemergence; conditions: Preemergence; for Plant response rating, Foxtail, Giant: 125 g ai/ha, visual injury after approximately 10 d, 0 to 100 scale where 0 is no effect and 100 is complete control; for Foxtail, Giant plant response rating (0 to 100 scale, 0 is no effect, 100 is complete control): 500 g ai/ha, visual injury approx. 10 d
Excerpt: as §1, §2

[13] = tested on: Kochia (Kochia scoparia); assay: Test A preemergence; conditions: Preemergence; for Plant response rating, Kochia: 125 g ai/ha, visual injury after approximately 10 d, 0 to 100 scale where 0 is no effect and 100 is complete control; for Kochia plant response rating (0 to 100 scale, 0 is no effect, 100 is complete control): 500 g ai/ha, visual injury approx. 10 d
Excerpt: as §1, §2

[14] = tested on: ryegrass, Italian (Italian ryegrass, Lolium multiflorum); assay: Test A preemergence; conditions: Preemergence; for Plant response rating, Ryegrass, Italian: 125 g ai/ha, visual injury after approximately 10 d, 0 to 100 scale where 0 is no effect and 100 is complete control; for Ryegrass, Italian plant response rating (0 to 100 scale, 0 is no effect, 100 is complete control): 500 g ai/ha, visual injury approx. 10 d
Excerpt: as §1, §2

[15] = tested on: barnyardgrass (Echinochloa crus-galli); assay: Test A preemergence; conditions: Preemergence; for Plant response rating, Barnyardgrass: 125 g ai/ha, visual injury after approximately 10 d, 0 to 100 scale where 0 is no effect and 100 is complete control; for Barnyardgrass plant response rating (0 to 100 scale, 0 is no effect, 100 is complete control): 500 g ai/ha, visual injury approx. 10 d
Excerpt: as §1, §2

[16] = tested on: pigweed (Amaranthus retroflexus); assay: Test A preemergence; conditions: Preemergence; for Plant response rating, Pigweed: 125 g ai/ha, visual injury after approximately 10 d, 0 to 100 scale where 0 is no effect and 100 is complete control; for Pigweed plant response rating (0 to 100 scale, 0 is no effect, 100 is complete control): 500 g ai/ha, visual injury approx. 10 d
Excerpt: as §1, §2

[17] = tested on: sedge, umbrella (small-flower umbrella sedge, Cyperus difformis); assay: Test B flooded paddy test; conditions: Flood, 250 g ai/ha; 0 to 100 scale where 0 is no effect and 100 is complete control; 13 to 15 d
How it was run: (§3)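 Evaluation by eye, against controls, occurred 13–15 d post-treatment in a greenhouse, using a 0 (no effect) to 100 (complete control) scale. Application was into the paddy water, 3 cm deep over the soil, on 2-leaf plants.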

[18] = tested on: rice (Oryra sativa); assay: Test B flooded paddy test; conditions: Flood, 250 g ai/ha; 0 to 100 scale where 0 is no effect and 100 is complete control; 13 to 15 d
How it was run: as §3

[19] = tested on: barnyardgrass (Echinochloa crus-galli); assay: Test B flooded paddy test; conditions: Flood, 250 g ai/ha; 0 to 100 scale where 0 is no effect and 100 is complete control; 13 to 15 d
How it was run: as §3

[20] = tested on: ducksalad (Heteranthera limosa); assay: Test B flooded paddy test; conditions: Flood, 250 g ai/ha; 0 to 100 scale where 0 is no effect and 100 is complete control; 13 to 15 d
How it was run: as §3

SMILES | Ragweed plant response rating [1] | Plant response rating, Ragweed [1] | Foxtail, Giant plant response rating [2] | Plant response rating, Foxtail, Giant [2] | Kochia plant response rating [3] | Plant response rating, Kochia [3] | Ryegrass, Italian plant response rating [4] | Plant response rating, Ryegrass, Italian [4] | Blackgrass plant response rating [5] | Plant response rating, Blackgrass [5] | Galium plant response rating [6] | Plant response rating, Galium [6] | Barnyardgrass plant response rating [7] | Plant response rating, Barnyardgrass [7] | Pigweed plant response rating [8] | Plant response rating, Pigweed [8] | Wheat plant response rating [9] | Plant response rating, Wheat [9] | Corn plant response rating [10] | Plant response rating, Corn [10] | other results
CS(=O)(=O)c1ccccc1NC(=O)C1C(=O)NCC1c1ccc(C2CC2)cc1 (racemic) [Compound 502] | 0 | 0 | 20 | 50 | 0 | 20 | 0 | 30 | 0 | 20 | 20 | 50 | 0 | 60 | 0 | 0 | 0 | 0 | 0 | 30 | Plant response rating, Ragweed [11]: 0; Ragweed plant response rating (0 to 100 scale, 0 is no effect, 100 is complete control) [11]: 50; Plant response rating, Foxtail, Giant [12]: 80; Foxtail, Giant plant response rating (0 to 100 scale, 0 is no effect, 100 is complete control) [12]: 90; Plant response rating, Kochia [13]: 0; Kochia plant response rating (0 to 100 scale, 0 is no effect, 100 is complete control) [13]: 70; Plant response rating, Ryegrass, Italian [14]: 0; Ryegrass, Italian plant response rating (0 to 100 scale, 0 is no effect, 100 is complete control) [14]: 30; Plant response rating, Barnyardgrass [15]: 0; Barnyardgrass plant response rating (0 to 100 scale, 0 is no effect, 100 is complete control) [15]: 60; Plant response rating, Pigweed [16]: 0; Pigweed plant response rating (0 to 100 scale, 0 is no effect, 100 is complete control) [16]: 30; Plant response rating, Sedge, Umbrella [17]: 0; Plant response rating, Rice [18]: 0; Plant response rating, Barnyardgrass [19]: 0; Plant response rating, Ducksalad [20]: 70
O=C1NCC(c2ccc(C(F)(F)F)c(F)c2)C1C(=O)Nc1cccc(F)c1F (racemic) [Compound 504] | 30 | 40 | 90 | 90 | 30 | 60 | 40 | 40 | 40 | 60 | 70 | 70 | 80 | 90 | 60 | 70 | 20 | 60 | 70 | 70 | Plant response rating, Ragweed [11]: 40; Ragweed plant response rating (0 to 100 scale, 0 is no effect, 100 is complete control) [11]: 50; Plant response rating, Foxtail, Giant [12]: 90; Foxtail, Giant plant response rating (0 to 100 scale, 0 is no effect, 100 is complete control) [12]: 90; Plant response rating, Kochia [13]: 80; Kochia plant response rating (0 to 100 scale, 0 is no effect, 100 is complete control) [13]: 80; Plant response rating, Ryegrass, Italian [14]: 40; Ryegrass, Italian plant response rating (0 to 100 scale, 0 is no effect, 100 is complete control) [14]: 70; Plant response rating, Barnyardgrass [15]: 90; Barnyardgrass plant response rating (0 to 100 scale, 0 is no effect, 100 is complete control) [15]: 90; Plant response rating, Pigweed [16]: 80; Pigweed plant response rating (0 to 100 scale, 0 is no effect, 100 is complete control) [16]: 100; Plant response rating, Sedge, Umbrella [17]: 0; Plant response rating, Rice [18]: 0; Plant response rating, Barnyardgrass [19]: 40; Plant response rating, Ducksalad [20]: 80

From patent US12077503B2, “Substituted cyclic amides and their use as herbicides” (FMC CORPORATION, priority 2015, dated 2024)
